Laboratory results taken from patent publication US3984547A, “Veterinary feedstuffs” (Bayer Aktiengesellschaft, priority 1971, dated 1976).
Converted amounts (≈) assume the structure as drawn. Where two headings read alike, the source gives them in different places.

Experiments:
Mycoplasma bovirhinis = test: MIC, series dilution test (PPLO medium); assay type: cell-based; conditions: 37° C, 18, 24 and 48 h, read-out: minimal inhibitory concentrations (MIC)
Method: (§1) For the compound of Example 3, the following minimal inhibitory concentrations (MIC) (γ/ml of nutrient medium) were measured by the series dilution test (PPLO medium), incubation temperature 37° C, determination after 18, 24 and 48 hours.

Mycoplasma granularum = test: MIC, series dilution test (PPLO medium); assay type: cell-based; conditions: Acholeplasma granularum, 37° C, 18, 24 and 48 h, read-out: minimal inhibitory concentrations (MIC)
Method: as §1

Mycoplasma gallisepticum = test: MIC, series dilution test (PPLO medium); assay type: cell-based; conditions: Mycoplasmoides gallisepticum, 37° C, 18, 24 and 48 h, read-out: minimal inhibitory concentrations (MIC)
Method: as §1

Escherichia coli C 165 = test: ED100 in mice after intraperitoneal infection, Table 3; assay type: in vivo; conditions: read-out: effective 100% dose (ED100)
Method: In animal experiments on mice, the effective 100% dose (ED100) in mg/Kg was determined for certain compounds of the invention after intraperitoneal infection and subcutaneous (s.c.) or oral (p.o.) administration of the preparation.

[1] = tested on: Pseudomonas aeruginosa Bonn; test: MIC in vitro, plate test (agar), Table 1; assay type: cell-based; conditions: about 37° C, readings 24 and 48 h
Method: The minimum inhibitory concentrations in vitro for some of the new compounds shown in Table 1 (MIC) were determined by the plate test in an agar medium of the following composition: |proteose peptone 10.0 g per liter |5.1 × 10^3 germs were inoculated per plate. […]. Readings were taken after 24 and 48 hours, and the incubation temperature was about 37° C.

Structure (SMILES)	MIC (Mycoplasma bovirhinis)	MIC (Mycoplasma granularum)	MIC (Mycoplasma gallisepticum)	ED100 (Escherichia coli C 165; C165, oral (p.c. [sic]))	ED100 (Escherichia coli C 165; C165, sc, s.c.)	MIC [1]
CN=Cc1c(C(=O)O)[n+]([O-])c2ccccc2[n+]1[O-] [Example 3]	200 µg/mL (≈ 809 µM)	25 µg/mL (≈ 101 µM)	100 µg/mL (≈ 405 µM)	100 mg/kg	50 mg/kg	–
O=C(O)c1c(C=NCCO)[n+]([O-])c2ccccc2[n+]1[O-] [Example 8]	–	–	–	100 mg/kg	50 mg/kg	–
NN=Cc1c(C(=O)O)[n+]([O-])c2ccccc2[n+]1[O-] [Example 10]	–	–	–	–	–	100 µg/mL (≈ 403 µM)
